Data: BindingDB's records for doi:10.1016/j.chembiol.2017.03.002 (Jagiellonian University, 2017)

Molecular target: T1, Ubiquitin carboxyl-terminal hydrolase 2 [258-605] (Homo sapiens, UniProt O75604)
T1 construct: 258-605
T1 sequence (O75604 whole entry): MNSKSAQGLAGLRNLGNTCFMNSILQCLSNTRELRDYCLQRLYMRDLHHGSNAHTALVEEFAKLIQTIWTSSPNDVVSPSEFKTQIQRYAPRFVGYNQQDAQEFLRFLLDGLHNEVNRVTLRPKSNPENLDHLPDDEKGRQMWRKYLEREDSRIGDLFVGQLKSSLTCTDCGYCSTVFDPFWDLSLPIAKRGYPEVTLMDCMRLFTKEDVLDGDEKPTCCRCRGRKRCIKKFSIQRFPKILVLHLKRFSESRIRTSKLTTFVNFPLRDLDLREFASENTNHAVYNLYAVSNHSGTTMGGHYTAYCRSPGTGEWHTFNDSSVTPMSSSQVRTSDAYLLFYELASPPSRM
Test: Ub-AMC-Hydrolysis Assay
Description: The assays were performed using Infinite 200 PRO - Tecan plate reader and 96-well, black Greiner microplates in a […] reaction volume. […]

- IC50: 5.8 µM
SMILES: COC(=O)C1CC[C@@]2(C)[C@H](CC[C@@H]3[C@@H]2CC[C@]2(C)[C@@H]([C@H](C)CCC(=O)O)CC[C@@H]32)C1 (stereo partly specified) [LCAE]
